# Results: patent publication EP4420661B1, “SMALL MOLECULES TARGETING GLYCOPROTEIN VI AS ANTIPLATELET AGENTS FOR USE IN THE PREVENTION AND/OR TREATMENT OF THROMBOSIS AND ASSOCIATED PATHOLOGIES” (Universidade de Santiago de Compostela, priority 2023, dated 2024)
# Experiments:
# GPVI = biological target: T1, GPVI (Homo sapiens, UniProt Q9HCN6); experiment: label-free biophysical binding assay based on dynamic mass redistribution (DMR), immobilized GPVI; conditions: for interaction with GPVI, Mean: DMR response; for interaction profile with GPVI (in words): concentration-response
# T1 sequence (Q9HCN6 21-267 limits assumed): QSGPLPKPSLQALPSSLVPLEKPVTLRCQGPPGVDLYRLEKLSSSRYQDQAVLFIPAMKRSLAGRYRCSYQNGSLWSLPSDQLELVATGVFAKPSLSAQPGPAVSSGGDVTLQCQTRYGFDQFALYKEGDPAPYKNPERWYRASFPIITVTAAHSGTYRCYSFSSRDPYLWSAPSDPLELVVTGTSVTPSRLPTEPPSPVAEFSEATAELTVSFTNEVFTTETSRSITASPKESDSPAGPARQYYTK
# Excerpt: A biophysical assay to test direct interaction with GPVI was developed by using a label-free methodology based on dynamic mass redistribution (DMR).
# This protocol consists of immobilizing the target protein in a surface by chemical means and then measure the refractory index of a light directed to the bottom of the surface, which contains a sensor. It has been used previously for other targets to determine the potency of ligands such as peptides and molecules [Akhter et al., (2017) and Álvarez-Coiradas et al., (2020)].
# Briefly, EnSpire LFB high sensitivity plates (PerkinElmer 6057460, USA) were activated with 400 mM EDC (N-(3-dimethylaminopropyl)-N'- ethylcarbodiimide hydrochloride) (Sigma Aldrich, UK) and 100 mM sulfo-NHS (sulfo-N-hydroxysulfosuccinimide) (Thermo Fisher, USA) diluted in ultrapure water for 30 min at room temperature. Microplates were subsequently washed with ultrapure water. GPVI protein was immobilized (25 µg/ml) in 20 mM sodium acetate buffer, pH 5.5. After an overnight incubation at 4 °C, the microplate was wa- shed with PBS with 0.005% Tween-20, pH 7.4 (assay buffer). Baseline was read after three hours on EnSpireTM 2300 Multilabel Plate Reader (PerkinElmer, Singapore). Compounds were added to the microplate, incubated for 1 h and the final read was performed in the EnSpireTM 2300 Multilabel Plate Reader. Recombinant CRP and assay buffer were employed as a positive and a negative control, respectively.
# Compounds were assayed by means of concentration-response curves with concentrations between 100 µM and 0.4 µM (1:3 serial dilutions in triplicates), while CRP was assayed similarly starting with 7µg/ml top dose and a total of 6 concentrations (1:2 serial dilutions in triplicates). Response (pm) was obtained by subtracting the baseline measurement from the final read.
# human platelets [1] = experiment: platelet spreading assay on CRP (phalloidin staining, confocal microscopy); assay type: cell-based; conditions: 10µM; CRP 1µg/mL; Figure 4
# Protocol: Platelet spreading experiments were carried out to assess the potency of the compounds of formula (I), exemplified by compounds (If)and (Ih).
# Platelets can change from a rounded, non-adherent form to adhere and flatten shape when exposed to ligands. This "spreading" effect can lead to the formation of cytoskeletal protein rearrangement. Platelet adhesion and extent of spreading (area covered) can be quantified.
# Briefly, human platelets from healthy individuals were isolated and washed. Then, platelets were incubated with the inhibitors at 10µM for 5 min at room temperature and then for 45 min at 37°C in coverslips coated with 1µg/mL of agonist (CRP).
# The images of platelet shape given by phalloidin staining were acquired by confocal fluorescence microscopy and the area analyzed by ImageJ [Onselaer et al., (2020)].
# physchem = conditions: 37 °C, aqueous buffer, kinetic from dmso stock
# Protocol: (§5) Solubility was determined by nephelometry to assess its potential impact on the bioassays at active concentrations.
# (§6) Then, said compounds were incubated for 2 hours at 37°C and read in a NEPHELOstar Plus (BMG LABTECH).
# human platelets [2] = experiment: platelet aggregation selectivity assay (agonists collagen, rhodocytin, thrombin); assay type: cell-based; conditions: 10 µM
# Protocol: In addition, an assessment of the selectivity of the active compound (Ic)at 10 µM was carried out based on aggregation assays. Briefly, human platelets from healthy individuals were isolated and washed. The agonists used in this selectivity assay were collagen, rhodocytin, and thrombin.
# human platelets [3] = experiment: intracellular Ca+2 mobilization assay, CRP-activated washed platelets (FLIPR Calcium 4); assay type: cell-based; conditions: Platelet, calcium mobilization in human platelets, read-out: % Inhibition of CRP effect at 1µM, Mean
# Protocol: An intracellular Ca^+2 mobilization assay was used to test the activity of the ligands in platelets. This assay measures the changes in calcium in real time by fluorophore dye Calcium 4, providing a useful way to characterize platelet activation by GPVI signaling [Barrachina et al. (2021)].
# Washed platelets (5x10E6) were incubated with FLIPR Calcium 4 reagent (Molecular Devices LLC, San Jose, CA, USA) in a 384-well transparent bottom plate (Greiner Bio-One International GmbH, Kremsmünster, Austria) and supplemented with Probenecid (Invitrogen™, Carlsbad, CA, USA) 0.07% for 1 h at 37 °C. Platelets were co-incubated for 10 min with the tested compounds and inhibitors of secondary mediators (2 U/mL apyrase and 10 microM indomethacin (Sigma-Aldrich, Saint Louis, MO, USA)) under nonaggregating conditions (9 microM eptifibatide (Cayman Chemicals, Ann Arbor, MI, USA)). Then, the GPVI-specific agonist Collagen-Related Peptide (CRP) was added to the platelet suspension at different doses. Both potential GPVI inhibitors and CRP were automatically dispensed by FDSS7000EX Functional Drug Screening System (Hamamatsu Photonics, Hamamatsu, Japan). Intracellular Ca^2+ mobilization was assessed by measuring fluorescence changes ([…] wavelengths) in real time for 15 min after the addition of the agonist. 100% was expressed as maximal Ca^2+ release in platelets treated with the agonist CRP. To determine IC50, compounds were tested at 9 different concentrations in duplicates starting from 10 uM and performing 1:3 serial dilutions. The analysis of the data was performed with GraphPad Prism® software (version 6.0e, March 2014) (GraphPad Software, San Diego, CA, USA) by carrying out a nonlinear regression fit for log(inhibitor) vs. relative CRP activity using a Hill slope of -1, and top and bottom constraints of 100 and 0, respectively.
# human platelets [4] = experiment: platelet aggregation assay, CRP-induced; assay type: cell-based; conditions: 10 µM; CRP 1 µg/mL; Figure 2
# Protocol: Platelet aggregation assays were carried out to assess the potency of the active compounds as previously described [Barrachina et al. (2021)].
# Briefly, human platelets from at least =7 healthy individuals were isolated and washed. Then, the suspension was incubated with the compounds at 10 µM at 37 ∘C for 4 min in a Chrono-log® 490-X aggregometer (Chrono-log Corporation, Havertown, PA, USA). After that, platelets were stimulated with the agonist CRP at 1 µg/mL for 5 min.
# [5] = metabolic stability, rat microsomes; assay type: in vitro ADME
# Protocol: (§1) Microsomes from Tebu-bio Xenotech were employed in the assay, having a content of 20 mg/ml of protein. The following quantities were added to each well of a 96-well microplate. Table 6: Metabolic stability assay.
# (§2) Plates were incubated at 37°C and 75 µL samples were taken at 0, 10, 20, 40 and 60 minutes.
# (§3) Samples were transferred to a microplate and 75 µl Acetonitrile + IS(Rolipram) were added for inactivating the microsomes, and 30 µl of H2O with 0.5% formic acid for improving the chromatographic conditions and kept at 4°C. When all the samples were taken the plate was centrifuged at […] for 30 min at 15°C. Stationary phase: ACQUITY BEH C18 1.7µm 2.1x50mm (Waters) Mobile phase: A: 0.1% formic; B: acetonitrile+0.1% formic acid Gradient: Table 6: UPLC gradient / Metabolic stability assay
# (§4) Metabolic stability was calculated from the logarithm of the remaining compound at each of the times evaluated.
# [6] = metabolic stability, mouse microsomes; assay type: in vitro ADME
# Protocol: Samples were transferred to a microplate and 75 µl Acetonitrile + IS(Rolipram) were added for inactivating the microsomes, and 30 µl of H2O with 0.5% formic acid for improving the chromatographic conditions and kept at 4°C. When all the samples were taken the plate was centrifuged at 46000 g for 30 min at 15°C. Stationary phase: ACQUITY BEH C18 1.7µm 2.1x50mm (Waters) Mobile phase: A: 0.1% formic; B: acetonitrile+0.1% formic acid Gradient: Table 6: UPLC gradient / Metabolic stability assay
# [7] = metabolic stability, dog microsomes; assay type: in vitro ADME
# Protocol: as §1, §2, §3, §4
# [8] = metabolic stability, human microsomes; assay type: in vitro ADME
# Protocol: as §1, §2, §3, §4
# [9] = * from Dehring et al. (2004); cited from earlier work
# [10] = solubility by nephelometry; conditions: 37 °C, aqueous buffer, kinetic from dmso stock
# Protocol: as §5, §6
compound,measurement,setting,value
O=C(Cc1ccc2c(c1)OCCO2)Nc1nc(-c2ccc(Br)cc2)cs1 [Compound (Ic)],"interaction with GPVI, Mean",GPVI; Compound concentration (1µM),12.37 pm
same,"interaction with GPVI, Mean",GPVI; Compound concentration (10µM),25.42 pm
same,platelet spreading on CRP (in words),human platelets [1],inhibition of platelet spreading on CRP
same,solubility at 2 h,physchem; pbs with 1% dmso,51.9 µM
same,"platelet aggregation, platelets exposed to collagen (in words)",human platelets [2]; agonist collagen,consistent inhibition of platelet aggregation
same,platelet aggregation induced by rhodocytin (in words),human platelets [2]; agonist rhodocytin,unchanged
same,platelet aggregation induced by thrombin (in words),human platelets [2]; agonist thrombin,unchanged
same,inhibition at 1 µM,human platelets [3],34%
same,inhibition of platelet aggregation (in words),human platelets [4],consistent inhibition of platelet aggregation
"Cc1ccc2nc(NC(=O)Cc3ccc4c(c3)OCCO4)sc2c1 [Ref. compound A, reference compound]","interaction with GPVI, Mean",GPVI; Compound concentration (1µM),-9.78 pm
same,"interaction with GPVI, Mean",GPVI; Compound concentration (10µM),1.91 pm
same,interaction profile with GPVI (in words),GPVI; DMR,did not show a good interaction profile
O=C(Cc1ccc2c(c1)OCCO2)Nc1nc(-c2ccc3ccccc3c2)cs1 [Compound (Ie)],"interaction with GPVI, Mean",GPVI; Compound concentration (1µM),6.50 pm
same,"interaction with GPVI, Mean",GPVI; Compound concentration (10µM),25.16 pm
same,solubility at 2 h,physchem; pbs with 1% dmso,22.5 µM
same,inhibition at 1 µM,human platelets [3],24.6%
same,inhibition of platelet aggregation (in words),human platelets [4],consistent inhibition of platelet aggregation
"C[C@]12CC[C@H]3[C@@H](CCC4=CC(=O)CC[C@@]43C)[C@@H]1CC[C@@H]2O [Testosterone, reference compound]",% remanent (*),"[5]; Rat microsomes, (*) sampling time 60 min",0.14%
same,half-life,"[5]; rat, rat microsomes",0.9 min
same,t1/2,[6],4.76 min
same,% remanent (*),[6]; (*) sampling time 60 min,0.06%
same,% remanent (*),"[7]; Dog microsomes, (*) sampling time 60 min",49.1%
same,half-life,"[7]; dog, dog microsomes",59.9 min
same,microsomal CLint,"[7]; dog, dog microsomes",11.8 µL/min/mg
same,t1/2,[8],12.95 min
same,% remanent (*),[8]; (*) sampling time 60 min,4.02%
O=C(Cc1ccc2c(c1)OCCO2)Nc1nc(-c2ccccc2)cs1 [Compound (Ia)],"interaction with GPVI, Mean",GPVI; Compound concentration (1µM),10.8 pm
same,"interaction with GPVI, Mean",GPVI; Compound concentration (10µM),19.81 pm
same,solubility at 2 h,physchem; pbs with 1% dmso,5.4 µM
same,inhibition at 1 µM,human platelets [3],53.7%
"COc1cc2nc(N3CCN(C(=O)c4ccco4)CC3)nc(N)c2cc1OC [Prazosin, reference compound]",Reported solubility,[9],26.3* µM
same,solubility at 2 h,physchem,77.2 µM
O=C(Cc1ccc2c(c1)OCCO2)Nc1nc(-c2ccc(Cl)cc2)cs1 [Compound (Ib)],"interaction with GPVI, Mean",GPVI; Compound concentration (1µM),13.76 pm
same,"interaction with GPVI, Mean",GPVI; Compound concentration (10µM),20.47 pm
same,platelet spreading on CRP (in words),human platelets [1],inhibition of platelet spreading on CRP
same,solubility at 2 h,physchem; pbs with 1% dmso,50 µM
same,inhibition at 1 µM,human platelets [3],15.9%
same,inhibition of platelet aggregation (in words),human platelets [4],consistent inhibition of platelet aggregation
"O=C(Cc1ccc2c(c1)OCCO2)Nc1nc2c(Cl)cccc2s1 [Ref. compound B, reference compound]","interaction with GPVI, Mean",GPVI; Compound concentration (1µM),6.77 pm
same,"interaction with GPVI, Mean",GPVI; Compound concentration (10µM),-16.01 pm
same,interaction profile with GPVI (in words),GPVI; DMR,did not show a good interaction profile
O=C(Cc1ccc2c(c1)OCCO2)Nc1nc(-c2ccc3c(c2)CCCC3)cs1 [Compound (Id)],"interaction with GPVI, Mean",GPVI; Compound concentration (1µM),17.38 pm
same,"interaction with GPVI, Mean",GPVI; Compound concentration (10µM),28.66 pm
same,solubility at 2 h,physchem; pbs with 1% dmso,21.9 µM
same,inhibition at 1 µM,human platelets [3],36%
collagen related peptide [CRP],interaction profile with GPVI (in words),GPVI,robust dose-dependent response
"C[C@H]1O[C@@H](O[C@H]2[C@@H](O)C[C@H](O[C@H]3[C@@H](O)C[C@H](O[C@H]4CC[C@@]5(C)[C@H](CC[C@@H]6[C@@H]5C[C@@H](O)[C@]5(C)[C@@H](C7=CC(=O)OC7)CC[C@]65O)C4)O[C@@H]3C)O[C@@H]2C)C[C@H](O)[C@@H]1O [Digoxin, reference compound]",Reported solubility,[9],59.3* µM
same,solubility at 2 h,[10],96.9 µM
"CC(=O)[C@H]1CC[C@H]2[C@@H]3CCC4=CC(=O)CC[C@]4(C)[C@H]3CC[C@]12C [Progesterone, reference compound]",Reported solubility,[9],3.7* µM
same,solubility at 2 h,physchem,5.1 µM
